Test results from EP0365818A1, “Immunological detection of atrazine and atrazine derivatives” (CIBA-GEIGY AG, priority 1988, dated 1990).

Legend:
Type in all cases: binding, Maus
[1] = system: MAb 4009-85-3 (ECACC 8808/2503); experiment: two-step competitive ELISA (BSA-conjugated hapten on plate), anti-hydroxyatrazine MAb; conditions: for % cross-reactivity (c): (Hydroxyatrazin conc. for 50 % inhibition)/(analogue conc. for 50 % inhibition) x 100; for I 50 ng/ml (a): inhibitor concentration for 50 % inhibition in competitive ELISA
Description: (§1) Der prozentuale Anteil der Kreuzreaktivität soll im Rahmen dieser Erfindung definitionsgemäss durch die folgende Beziehung wiedergegeben werden: (Atrazin/Hydroxyatrazinkonzentration für 50 % Hemmung/Konzentration der s-Triazin-/Hydroxytriazinanalogen für 50 % Hemmung) x 100.
(§2) Eine 50 %ige Hemmung kann beispielsweise mit Hilfe eines kompetitiven ELISA Assays (vgl. Beispiel 8) bestimmt werden. Diese entspricht dann beispielsweise derjenigen Antigenkonzentration, die zu einer 50 %igen Hemmung der Antikörperbindung an das Träger-gebundene Antigen führt.
(§3) Der Nachweis von Atrazin und Hydroxyatrazin erfolgt mit Hilfe eines zweistufigen, kompetitiven ELISA-Tests.
(§4) BSA-konjugiertes Hapten wird zunächst in einem Natriumcarbonatpuffer (pH 9,6) (0,2 µg/Vertiefung) an Mikrotiterplatten adsorbiert und über Nacht bei einer Temperatur von 4°C inkubiert. Die restlichen freien Bindungsstellen des festen Trägermaterials werden dann durch Zugabe von BSA in Form einer 1 % Lösung blockiert.
(§5) Die Platten werden anschliessend mit PBS gewaschen, das mit 0,1 % (v/v) Polysorbat 20 angereichert ist (PBS-Tween).
(§6) 50 µl der zuvor gereinigten monoklonalen Antikörper (2 µg/ml) oder aber des Ueberstandes der Zellklone (in einer Verdünnung von 1:5 bis 1:22,5) werden a) mit 950 µl einer Standardlösung, die einen steigenden Anteil an Triazin bzw. Triazin-Analogen enthält, b) mit triazinhaltigen Wasserproben oder c) triazinhaltigen Bodenextrakten inkubiert. (Alle Verdünnungen werden in PBS-Tween vorgenommen).
(§7) Nach einer Inkubationszeit von 1 Stunde bei Raumtemperatur werden 200 µl des Gemisches zu jeder Vertiefung der Mikrotiterplatte zugegeben und der gesamte Ansatz wird für eine weitere Stunde inkubiert.
(§8) Die Vertiefungen werden anschliessend 5 x gewaschen und mit 100 µl/Vertiefung Ziegen-anti-Maus IgG Antikörper der konjugiert an alkalische Phosphatase vorliegt (Verdünnung 1:1500) beschickt und für einen Zeitraum von 1,5 Stunden inkubiert.
(§9) Nach erneutem Waschen werden 150 µl/Vertiefung des in 1 mg/ml Diethanolaminpuffer (1 mM, pH 9,8) gelösten Substrates p-Nitrophenylphosphat zu den Vertiefungen zugegeben.
(§10) Ein Farbumschlag, der proportional ist zur Menge an Antikörper, der mit dem an die Festphase gebundenen Antigen reagiert hat, wird bei einer Wellenlänge von 405 nm aufgezeichnet. Die Verdünnungen der einzelnen Proben werden so gewählt, dass man ohne Zugabe eines Inhibitors (Bo) Absorptionswerte in einem Bereich zwischen 0.3 und 0.5 erhält. Für die Kontrollen (ohne Antikörper und mit nicht nachweisbaren Mengen an Antigen) ergeben sich Werte von R ≦ 0.005. Alle Proben werden in dreifacher Ausfertigung bestimmt.
(§11) Zur Ermittlung der in einer Probe enthaltenen Menge an Atrazin/Hydroxyatrazin wird zunächst eine Eichkurve erstellt (Abb. 1), wobei B/Bo x 100 gegen die Konzentration an Inhibitor aufgetragen wird. (Bo bedeutet Absorptionsfähigkeit gemessen ohne Zugabe eines Triazininhibitors zum Antikörper, und B Absorptionsfähigkeit bei Zugabe verschieden konzentrierter Triazin-Inhibitoren) Der I₅₀-Wert gibt diejenige Konzentration des Antigens an, bei der die Antikörperbindung an die Festphase zu 50 % gehemmt wird. Der I₅₀-Wert wird mit Hilfe eines auf die vorliegenden Verhältnisse speziell angepassten ENZFITTER (Leatherbarrow, Elsevier-Biosoft)Kurvenkalkulationsprogramms bestimmt, basierend auf einer 4 Parameter umfassenden logistischen Kurve (Raab GM, 1983). Auch die quantitative Atrazin bzw. Hydroxyatrazinbestimmung in Boden- oder Wasserproben im Rahmen des ELISA wird mit Hilfe des ENZFITTER-Programms durchgeführt, wobei die Anpassung der Kurve auf Standards basiert, die auf jeder Mikrotiterplatte mitlaufen.

[2] = system: Mab 4009-77-20 (ECACC 8808/2502); experiment: as above; conditions: for % cross-reactivity (c): (Hydroxyatrazin conc. for 50 % inhibition)/(analogue conc. for 50 % inhibition) x 100; for I 50 ng/ml (a): inhibitor concentration for 50 % inhibition in competitive ELISA
Description: as §1, §2, §3, §4, §5, §6, §7, §8, §9, §10, §11

[3] = system: MAb 4063-21-1 (ECACC 8808/2501); experiment: two-step competitive ELISA (BSA-conjugated hapten on plate), anti-atrazine MAb; conditions: for % cross-reactivity (b): (Atrazin conc. for 50 % inhibition)/(analogue conc. for 50 % inhibition) x 100; for I 50 ng/ml (a): inhibitor concentration for 50 % inhibition in competitive ELISA
Description: as §1, §2, §3, §4, §5, §6, §7, §8, §9, §10, §11

Row | SMILES | % cross-reactivity (c) [1] | I 50 ng/ml (a) [1] | % cross-reactivity (c) [2] | I 50 ng/ml (a) [2] | % cross-reactivity (b) [3] | I 50 ng/ml (a) [3] | I 50 ng/ml (a) ([1]; listed as Hydroxyatrazin) | I 50 ng/ml (a) ([2]; listed as Hydroxyatrazin)
1 | CCNc1nc(O)nc(NC(C)(C)C)n1 [OH-Terbuthylazin, Hydroxyterbuthylazin] | 5,0% | 19 ng/mL | 15,2% | 3,3 ng/ml | 5,6% | 8 ng/mL | – | –
2 | CSc1nc(NC(C)C)nc(NC(C)C)n1 [Prometryn] | – | – | – | – | 56,3% | 0,8 ng/ml | – | –
3 | CCNc1nc(Cl)nc(N(CC)CC)n1 [Trietazin] | – | – | – | – | 11,3% | 4 ng/mL | – | –
4 | CCNc1nc(NC(C)C)nc(OC)n1 [Atraton] | <0,1% | >1000 ng/mL | <0,05% | >1000 ng/mL | 6,4% | 7 ng/mL | – | –
5 | CCNc1nc(Cl)nc(NC(C)C)n1 [Atrazin] | <0,1% | >1000 ng/mL | <0,05% | >1000 ng/mL | 100,0% | – | – | –
6 | CC(C)Nc1nc(Cl)nc(NC(C)C)n1 [Propazin] | <0,1% | >1000 ng/mL | <0,05% | >1000 ng/mL | 90,0% | 0,5 ng/ml | – | –
7 | CCNc1nc(O)nc(NCC)n1 [OH-Simazin, Hydroxysimazin] | 1,5% | 65 ng/mL | 41,7% | 1,2 ng/ml | 0,3% | 180 ng/mL | – | –
8 | COc1nc(NC(C)C)nc(NC(C)C)n1 [Prometon] | – | – | – | – | 75,0% | 0,6 ng/ml | – | –
9 | CCNc1nc(Cl)nc(NCC)n1 [Simazin] | – | – | – | – | 2,5% | 18 ng/mL | – | –
10 | CNc1nc(NC(C)C)nc(SC)n1 [Desmetryn] | – | – | – | – | 0,5% | 90 ng/mL | – | –
11 | CNc1nc(O)nc(NC(C)C)n1 [OH-Desmetryn, Hydroxydesmetryn] | 11,9% | 8 ng/mL | 71,4% | 0,7 ng/ml | 0,1% | 360 ng/mL | – | –
12 | CCNc1nc(NC(C)C)nc(SC)n1 [Ametryn] | <0,1% | >1000 ng/mL | <0,05% | >1000 ng/mL | 5,0% | 9 ng/mL | – | –
13 | CCNc1nc(O)nc(NC(C)C)n1 [OH-Atrazin, Hydroxyatrazin] | 100,0% | 0,95 ng/ml | 100,0% | 0,5 ng/ml | 2,1% | 21 ng/mL | 0.95 ng/mL | 0.5 ng/mL
14 | CCNc1nc(NCC)nc(SC)n1 [Simetryn] | – | – | – | – | 1,7% | 27 ng/mL | – | –
15 | CC(C)Nc1nc(O)nc(NC(C)C)n1 [OH-Propazin, Hydroxypropazin] | 100,0% | 0,95 ng/ml | 83,3% | 0,6 ng/ml | 8,2% | 5,5 ng/ml | – | –
16 | CCNc1nc(Cl)nc(NC(C)(C)C)n1 [Terbuthylazin] | – | – | – | – | 5,0% | 9 ng/mL | – | –
